The record followed here is PubChem BioAssay AID1259375 (The Scripps Research Institute Molecular Screening Center, 2018).

The structures appear in SMILES notation. Calls of active or inactive are those of the source. The rule behind the calls is not given here.

This assay concerns the target Microphthalmia-associated transcription factor (Homo sapiens) (UniProt O75030). As to the kind of experiment: MITF inhibitors by FRET titration, dose response, biochemical, high throughput (AID 1259375).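 Note: FRET between CFP-tagged and YFP-tagged MITF protein partners.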 The note with it: FRET biochemical assay, MITF inhibition.

Chain of Microphthalmia-associated transcription factor (Homo sapiens) (O75030 whole entry, looked up): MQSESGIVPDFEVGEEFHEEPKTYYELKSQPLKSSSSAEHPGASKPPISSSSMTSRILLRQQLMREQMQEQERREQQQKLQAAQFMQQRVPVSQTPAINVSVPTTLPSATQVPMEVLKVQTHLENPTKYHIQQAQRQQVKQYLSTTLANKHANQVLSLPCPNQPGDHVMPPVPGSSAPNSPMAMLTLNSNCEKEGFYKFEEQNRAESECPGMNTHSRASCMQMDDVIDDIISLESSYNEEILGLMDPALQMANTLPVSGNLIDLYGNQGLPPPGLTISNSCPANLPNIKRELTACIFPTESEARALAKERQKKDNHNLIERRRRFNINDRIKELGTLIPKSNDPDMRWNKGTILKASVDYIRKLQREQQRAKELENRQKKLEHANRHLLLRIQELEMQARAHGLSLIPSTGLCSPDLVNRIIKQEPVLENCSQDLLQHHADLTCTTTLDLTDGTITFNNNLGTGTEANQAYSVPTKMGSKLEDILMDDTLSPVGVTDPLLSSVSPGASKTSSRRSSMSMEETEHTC

One may read the IC50 as the concentration needed to halve the response being measured. With `COc1ccc2c(c1)C1NC(=S)N(c3cccc(C)c3)C(C)(O2)C1C(=O)Nc1ccc(C)cc1C` (centres undefined), the IC50 is > 5.71 µM (inactive).

Regarding `CN(C)CCN(C(=O)OCc1ccccc1)c1cc(-c2cn[nH]c2)ccc1NC(=O)OCc1ccccc1`, the IC50 was > 6.48 µM (inactive).

`COc1cc(N2CCOCC2)ccc1Nc1cc(Nc2ccccc2-n2cccn2)c(C(F)(F)F)cn1`: the IC50 was > 6.48 µM (inactive).

As to `NS(=O)(=O)c1ccc(N=Cc2cc3c(cc2[N+](=O)[O-])OCO3)cc1`, the IC50 was > 6.48 µM (inactive). `O=C1Nc2ccc(S(=O)(=O)NCc3ccccc3)cc2C1=O`: the IC50 was > 6.08 µM (inactive).

Regarding `Brc1c(OCCN2CCNCC2)ccc2ccccc12`, the IC50 is > 6.48 µM (inactive). In the case of `CC[C@H](C)[C@@H]1NC(=O)[C@H]2CN(C(=O)NC3CCCCC3)CCN2C1=O` it was > 6.48 µM (inactive); in that of `COc1cc(OC)c(CN2CCCC(O)C2)cc1Br` (centres undefined), > 6.48 µM (inactive). `Cc1ccc(/C(C#N)=C\c2ccco2)cc1`: the IC50 is > 6.48 µM (inactive). Turning to `O=C(O)c1cc(NN=C2CCCC2)ccc1Cl`, the IC50 is > 7.18 µM (inactive). In the case of `O=C(NC1CCCCC1)N1CCN2C(=O)[C@H]3CCCN3C(=O)[C@H]2C1` it was > 6.48 µM (inactive); in that of `O=P(O)(O)C(Sc1ccc(Cl)cc1)P(=O)(O)O`, > 6.48 µM (inactive).

With `CCOC(=O)N1CCN(C(=S)Nc2ccc(OCC)cc2)CC1`, the IC50 is > 6.48 µM (inactive).

As for `O=C(NC1CCCCC1)N1CCN2C(=O)[C@@H]3C[C@@H](O)CN3C(=O)[C@H]2C1`, the IC50 is > 6.48 µM (inactive).

Regarding `COc1ccc(OC)c(NC(=O)c2cc3ccc(O)cc3oc2=Nc2ccc(C(=O)O)cc2)c1`, the IC50 was > 5.54 µM (inactive). Turning to `c1ccc(-c2ccc(OCCCCn3cncn3)cc2)cc1`, the IC50 is > 6.48 µM (inactive). As for `C/C(=N\NC(=O)Cc1cc(=O)[nH][nH]1)c1ccco1`, the IC50 was > 6.48 µM (inactive). In the case of `CCOc1ccccc1N1CCN(Cc2cc(OC)c(O)c([N+](=O)[O-])c2)CC1` it was > 6.48 µM (inactive); in that of `O=C1N[C@@H](Cc2ccc(O)cc2)C(=O)N2CCN(C(=O)NC3CCCCC3)C[C@H]12`, > 6.48 µM (inactive); in that of `NC(=O)c1cccc(-c2cccs2)c1`, > 6.74 µM (inactive). In the case of `COc1cc(OC)c(C(=O)OC2CCCC2=O)cc1OC` (centres undefined) it was > 7.05 µM (inactive). In the case of `CC(=O)CC1=C(C(=O)O)N2C(=O)C(N)C2SC1` (centres undefined) it was > 6.48 µM (inactive). For the compound `O=C(NCc1cccnc1)c1ccnc(-c2cccs2)c1`, the IC50 is > 6.93 µM (inactive).

Turning to `O=C(OC1CCCC1=O)c1ccc(N2CCCC2=O)cc1` (centres undefined), the IC50 is > 7.22 µM (inactive). In the case of `COc1cccc(CN2CCN(C(=O)c3ccc(F)cc3)CC2)c1` it was > 5.27 µM (inactive). The same measure for `CCN(C(=O)C1COc2ccccc2O1)C12CC3CC(CC(C3)C1)C2` (centres undefined): > 6.83 µM (inactive); for `COc1ccc(C[C@@H]2NC(=O)[C@H]3CN(C(=O)NC4CCCCC4)CCN3C2=O)cc1`: > 6.48 µM (inactive).

Consider `COc1cccc(CN2CCC(CNc3ccc(-c4ccncc4)cc3)C2)c1` (centres undefined), for which the IC50 was > 6.48 µM (inactive).

`O=C(/C=C/c1ccco1)NCCCCNC(=O)/C=C/c1ccco1`: the IC50 was > 6.48 µM (inactive). In the case of `O=C(NCc1cccnc1)c1cccc(-c2cccs2)c1` it was > 6.64 µM (inactive); in that of `c1ccc2c(c1)OCC(c1nc3c(-c4ccncc4)cncc3[nH]1)O2` (centres undefined), > 6.48 µM (inactive); in that of `O=C(/C=C/c1ccco1)C1=C(O)C(=O)N(CCCN2CCOCC2)C1c1ccco1` (centres undefined), > 6.48 µM (inactive).

With `O=C(CCCCC1SCC2NC(=O)NC21)NC1(c2ccc(F)cc2)CCCC1` (centres undefined), the IC50 was > 6.48 µM (inactive). In the case of `O=c1[nH]cccc1-c1ccc(Nc2nccc(-c3ccc4nc(C5CC5)[nH]c(=O)c4c3)n2)cc1` it was > 6.48 µM (inactive); in that of `O=C(/C=C/c1ccco1)Nc1nnc(-c2ccco2)s1`, > 6.48 µM (inactive). As for `CN1C(=O)[C@H]2CN(C(=O)NCc3ccccc3)CCN2C(=O)[C@@H]1Cc1ccccc1`, the IC50 is > 6.48 µM (inactive). In the case of `O=C1N[C@H](Cc2ccccc2)C(=O)N2CCN(C(=O)NCc3ccccc3)C[C@H]12` it was > 6.48 µM (inactive). In the case of `C[C@@H]1NC(=O)[C@H]2CN(C(=O)NC3CCCCC3)CCN2C1=O`, the IC50 is > 6.48 µM (inactive). The same measure for `O=C(O)CSc1cc(Cl)c2nonc2c1[N+](=O)[O-]`: 4.2 µM; for `NC(=O)c1cc(NC(=O)COC(=O)COc2cccc(C(F)(F)F)c2)cc(C(N)=O)c1`: > 6.49 µM (inactive). The same measure for `O=C(CN1C(=O)NC2(CCCCCC2)C1=O)NC(=O)NCc1ccco1`: > 7.16 µM (inactive); for `Cc1ccc2[nH]c(=O)c(=O)[nH]c2c1`: > 12.1 µM (inactive); for `COc1ccccc1C1(NC(=O)CCCCC2SCC3NC(=O)NC32)CCCC1` (centres undefined): > 6.48 µM (inactive). Consider `CC(C)(C)OC(=O)N1C(C(=O)O)CSC1c1cc2c(cc1[N+](=O)[O-])OCO2` (centres undefined), for which the IC50 is > 6.48 µM (inactive).

`O=C(O)c1cc(-n2cccc2)ccc1Cl`: the IC50 was > 6.48 µM (inactive).

Consider `C/C(N)=C(/C#N)C(=O)COC(=O)c1c2c(nc3ccccc13)/C(=C/c1ccco1)CC2`, for which the IC50 is > 6.27 µM (inactive). The same measure for `O=C(/C=C/c1ccco1)ON1C(=O)c2ccccc2C1=O`: > 6.48 µM (inactive). For `C/C(=N\Nc1ccc(S(=O)(=O)O)cc1)c1cccc(Br)c1`, the IC50 was > 6.48 µM (inactive).

As to `CN(C)C(=O)N1CCN(S(=O)(=O)c2cccc([N+](=O)[O-])c2)CC1`, the IC50 was > 6.48 µM (inactive). Regarding `Cc1ccc(NC(=O)COC(=O)CCC(=O)Nc2sc3c(c2C(N)=O)CCC3)cc1F`, the IC50 is > 6.95 µM (inactive). In the case of `NC(=O)c1ccc2nc(-c3cccs3)sc2c1` it was > 6.18 µM (inactive). In the case of `CN=C1SC(CC(=O)Nc2cccc(C(=O)O)c2)C(=O)N1C` (centres undefined) it was > 6.48 µM (inactive). In the case of `O=C(O)CCC(NCc1ccco1)C(=O)O` (centres undefined) it was > 6.85 µM (inactive); in that of `CN(C)[C@@H]1C(=O)C(C(=O)NCN2CCCC2)=C(O)[C@@]2(O)C(=O)C3=C(O)c4c(O)cccc4[C@@](C)(O)[C@H]3C[C@@H]12`, > 6.48 µM (inactive); in that of `Cc1cc(C)nc(NS(=O)(=O)c2ccc(N3C(=O)C=CC3=O)cc2)n1`, > 6.48 µM (inactive). On to `O=C1N[C@@H](Cc2ccccc2)C(=O)N2CCN(C(=O)NC3CCCCC3)C[C@H]12`, for which the IC50 was > 6.48 µM (inactive).

On to `C=C1C(C(=O)NCc2ccco2)C1C(=O)NCc1ccco1` (centres undefined), for which the IC50 was > 7.72 µM (inactive). The same measure for `O=C1S/C(=C\c2ccco2)C(=O)N1c1ccccc1Cl`: “inactive”; for `COC(=O)CN(CCN(CC(=O)O)CC(=O)OC)CC(=O)O`: > 5.37 µM (inactive); for `CCOC(=O)Cc1[nH]nc2c1C1(C(=O)N(CC)c3ccccc31)C(C#N)=C(N)O2` (centres undefined): > 6.48 µM (inactive). In the case of `NC(=O)c1ccc(N=Cc2cc3c(cc2[N+](=O)[O-])OCO3)cc1` it was 4.37 µM; in that of `NC1(C(Cl)(Cl)Cl)Oc2ccccc2O1`, > 6.48 µM (inactive). The same measure for `O=C(NCC(c1cccs1)S(=O)(=O)c1ccc(Cl)cc1)c1ccco1` (centres undefined): > 6.55 µM (inactive). For `O=C(O)c1ccc(CS(=O)(=O)c2ccccc2)o1`, the IC50 is > 6.48 µM (inactive).

`O=C1N[C@@H](Cc2c[nH]c3ccccc23)C(=O)N2CCN(C(=O)NC3CCCCC3)C[C@H]12`: the IC50 was > 6.48 µM (inactive). In the case of `C=CCc1cc(Cl)ccc1OCCOCCNCCOC` it was > 6.48 µM (inactive).

Regarding `Cc1ccc(C)n1C(CC(=O)O)c1ccsc1` (centres undefined), the IC50 is > 6.76 µM (inactive).

Regarding `O=C1N[C@@H](Cc2ccc(Cl)cc2)C(=O)N2CCN(C(=O)NCc3ccccc3)C[C@H]12`, the IC50 was > 6.48 µM (inactive). In the case of `COCCNC(=O)COC(=O)c1cc(-c2ccco2)nc2ccccc12` it was > 6.59 µM (inactive); in that of `O=C(NC1CCN(Cc2ccccc2)CC1)c1ccc2nc(-c3cccs3)sc2c1`, > 6.38 µM (inactive). In the case of `CCC(C)C(=O)NCc1nnc2n1CCN(C/C=C/c1ccco1)CC2` (centres undefined) it was > 6.48 µM (inactive); in that of `NC(=O)COC(=O)/C=C/c1ccc(I)o1`, > 7.27 µM (inactive). In the case of `O=C1OC(c2ccc(Cl)cc2Cl)=N/C1=C\c1ccc([N+](=O)[O-])o1` it was > 6.05 µM (inactive). As to `O=S(=O)(c1ccccc1C(F)(F)F)N1CCC(c2nc3ccccc3[nH]2)CC1`, the IC50 was > 6.48 µM (inactive). The same measure for `N#CC(C#N)=C(N)/C(C#N)=C/c1ccc([N+](=O)[O-])o1`: 4.85 µM; for `O=C(O)c1coc(CNC(=O)c2cocc2C(=O)O)c1`: > 6.48 µM (inactive). The same measure for `Cc1cccc(OCC(=O)N2CCN(Cc3cccc(Br)c3)CC2)c1`: > 6.48 µM (inactive).

Take `Cc1nc(C)n(-c2ccc(Nc3cc(-n4cc(N(c5cccnc5)c5cccnc5)cn4)ccn3)cc2)n1`: the IC50 is > 6.48 µM (inactive). The same measure for `C/C=C\C1=C(C(=O)O)N2C(=O)C(NC(=O)C(N)c3ccc(O)cc3)C2SC1` (centres undefined): > 6.48 µM (inactive); for `O=C(COC(=O)/C=C/c1ccco1)COC(=O)/C=C/c1ccco1`: > 7.07 µM (inactive); for `Cc1ccc(CCC(=O)Nc2ccc(-c3cn4c5c(nnc4n3)CCCC5)cc2)o1`: > 6.48 µM (inactive). The same measure for `Cc1cncc2c(S(=O)(=O)N3CC[C@@H](NC(=O)C(O)c4ccc(F)cc4F)C3)cccc12` (some centres undefined): > 6.48 µM (inactive); for `CCN(CC)c1ncnc2c1ncn2[C@@H]1O[C@H](COP(=O)(O)OP(=O)(O)C(Br)(Br)P(=O)(O)O)C(O)[C@@H]1O` (some centres undefined): > 6.48 µM (inactive). `CC[C@@H]1NC(=O)[C@H]2CN(C(=O)NC3CCCCC3)CCN2C1=O`: the IC50 is > 6.48 µM (inactive).
